Converted amounts (≈) assume the structure as drawn.
Details: for aqueous solubility: pH 6.8

Row | SMILES | aqueous solubility [µg/mL] | MDR1-MDCK efflux ratio | intrinsic clearance, human liver microsomes [mL/min/kg] | intrinsic clearance, rat liver microsomes [mL/min/kg] | fraction unbound, human plasma | fraction unbound, rat plasma
1 | CC(C)[C@H](O)C(=O)N[C@@H](C)C(=O)N[C@@H]1C(=O)N(C)CCc2ccccc21 |  |  | 6.33 | 14.2 |  | 
2 | CC(C)c1nnc(CNc2ncc(Br)cn2)n1C |  | 4.39 | ≤ 4.74 | ≤ 10.7 |  | 
3 | CN(Cc1ccccc1N1CCCC1)C(=O)c1cccc(Cn2ccnc2)c1 | 61.6 (≈ 164 µM) | 21.7 | 392 | 1520 |  | 
4 | COc1ccc(Cl)cc1C(=O)NCCc1ccc(S(=O)(=O)NC(=O)NC2CCCCC2)cc1 |  | 123 | 28.7 | 535 | 0.00121 | 0.00114
5 | Cc1nsc(NCc2cncs2)n1 |  | 0.684 | ≤ 4.74 | 16.8 |  | 
6 | Nc1ncc(-c2cccc(C(F)(F)F)c2)c(C2CCCCN2C(=O)c2ccccc2)n1 (stereo not given) | 25.1 (≈ 58.9 µM) | 1.93 | 380 | 1510 | 0.00903 | 0.0137
7 | CN1CCN(C(=O)C2(NC(=O)c3ccc(C(F)(F)F)cc3)CCCC2)CC1 | 76.1 (≈ 199 µM) | 86 | ≤ 4.74 | ≤ 10.7 |  | 
8 | CC(C)(C)c1ccc(C2=NC3(CCNCC3)NC2=O)cc1 | 45 (≈ 158 µM) | 33.8 | 6.52 | 59.6 |  | 
9 | CN(C)c1ccc(Cn2c(=O)[nH]c3ccccc3c2=O)cn1 | 2.6 (≈ 8.77 µM) | 4.71 | 9.13 | 368 |  | 
10 | Cn1c(C(=O)N2CCN(CCc3ccccc3)C(=O)C2)cc(=O)n(C)c1=O | 59.7 (≈ 161 µM) | 8.33 | ≤ 4.74 | 31.7 |  | 
11 | CC(C)CC(=O)Nc1ccc(Cl)c(C#N)c1 | 24.1 (≈ 102 µM) |  |  |  |  | 
12 | Cc1ccc(F)c(-c2noc(N)c2C)c1 |  | 0.523 | 19.6 | 293 |  | 
13 | CC(C)(C)CC(=O)N1CCC(OCCCN)CC1 | 50.6 (≈ 198 µM) | 8.05 | ≤ 4.74 | ≤ 10.7 |  | 
14 | CCn1nccc1-c1cc(CC2CCNCC2)ncn1 | 37.3 (≈ 137 µM) | 54.7 | ≤ 4.74 | ≤ 10.7 |  | 
15 | Cn1c(=O)cc(N2CCC[C@@H](N)C2)n(Cc2cc(F)ccc2C#N)c1=O |  |  | ≤ 4.74 | ≤ 10.7 |  | 
16 | CCC(=O)N1CCCC(C(=O)N2CCc3c(Cl)cc(Cl)cc3C2C)C1 (stereo not given) | 54.8 (≈ 143 µM) |  | 416 | 1510 |  | 
17 | C1CN(c2nc3c(c(N4CCSCC4)n2)SCC3)CCS1 |  | 0.383 | 126 | 1530 |  | 
18 | Cc1nn(Cc2cccc(Br)c2)c(C)c1C(=O)O | 51.4 (≈ 166 µM) | 1.58 | ≤ 4.74 | ≤ 10.7 |  | 
19 | C#CCNC(=O)CCc1c(C)nn(C)c1C | 60.9 (≈ 278 µM) | 7.96 | ≤ 4.74 | ≤ 10.7 |  | 
20 | CCOc1ccc(S(=O)(=O)N(CC)CC(=O)Nc2ccc3c(c2)OCO3)cc1 | 0.44 (≈ 1.08 µM) | 0.853 |  |  |  | 
21 | CCCCCCCC/C(=C\CCCCCCCC(=O)O)[N+](=O)[O-] | 12.7 (≈ 38.8 µM) |  | 42.9 | 84.9 |  | 
22 | CCS(=O)(=O)N1CCN(c2ccc(Nc3ncc(C(N)=O)c(NC4CC4)n3)cc2)CC1 |  | 39.4 | 9.73 | 36.3 |  | 
23 | CN1CCN(CCOc2ccccc2N)CC1 | 38.1 (≈ 162 µM) | 0.548 | 8.03 | 130 |  | 
24 | NCCN1CCN(C/C=C/C(=O)N2CCC[C@@H](n3nc(-c4ccc(Oc5ccccc5)cc4)c4c(N)ncnc43)C2)CC1 | 30.2 (≈ 51.9 µM) |  | 9.07 | 49.8 | 0.0501 | 0.0486
25 | CCC(C)(C)N1CCN(C(=O)Nc2cnn(CC(C)C)c2C(F)F)CC1 |  | 4.08 | ≤ 4.74 | 159 |  | 
26 | COc1cc(CN2CCCNCC2)cc2c1OCO2 |  | 8.38 | 5.17 | 72.9 |  | 
27 | Cc1noc(C2CCN(C(=O)C3(c4cccc(F)c4)CCC3)CC2)n1 | 76.3 (≈ 222 µM) | 0.861 | 54.1 | 2450 |  | 
28 | CN(Cc1ccccc1Br)C(=O)Nc1ccc(C(=O)N2CCCC2)cc1 | 69.4 (≈ 167 µM) | 9.97 | 14.6 | 767 |  | 
29 | CC(C)(C)OC(=O)NCc1ccc(C(=N)NC(=O)OCc2ccccc2)cc1 | 2.59 (≈ 6.75 µM) | 2.23 | 84.3 | 1300 |  | 
30 | CN(c1ncnc2c1cnn2CCO)C1CCCCC1 | 44.7 (≈ 162 µM) | 0.672 | ≤ 4.74 | 77.5 |  | 

More lines, now with the values ahead:

Row | aqueous solubility [µg/mL] | MDR1-MDCK efflux ratio | intrinsic clearance, human liver microsomes [mL/min/kg] | intrinsic clearance, rat liver microsomes [mL/min/kg] | fraction unbound, human plasma | fraction unbound, rat plasma | SMILES
31 | 1 (≈ 3.43 µM) |  |  |  |  |  | CCn1nnc2cc(C(=O)Nc3cccc(C#N)c3)ccc21
32 | 49 (≈ 112 µM) | 83.5 | 559 | 1320 |  |  | c1csc(-c2csc3nc(CN4CCOCC4)nc(N4CCc5[nH]ncc5C4)c23)c1
33 |  | 1.39 | 23.5 | 296 |  |  | COc1ccc2nc(C)nc(NCc3ncc(C)o3)c2c1
34 |  |  | 23.6 | 98.1 |  |  | COCCCNc1ncc(-c2ccsc2)c(-c2nc(C)c(C)s2)n1
35 | 60.3 (≈ 102 µM) | 97.9 | 108 | 557 | 0.00624 | 0.00368 | CCc1nc2c(C)cc(N3CCN(CC(=O)N4CC(O)C4)CC3)cn2c1N(C)c1nc(-c2ccc(F)cc2)c(C#N)s1
36 |  | 0.704 | ≤ 4.74 | 31.1 |  |  | O=C(Cc1cccnc1)Nc1ncccc1Cl
37 | 0.41 (≈ 1.06 µM) | 15.9 |  |  |  |  | Cc1cccc(OCC(=O)Nc2ccc3c(c2)C(=O)N(c2ccccc2)C3=O)c1
38 |  |  |  |  | 0.00062 | 0.00051 | COc1cc2c(cc1OC)CN(CCc1ccc(NC(=O)c3cccc4c(O)c5cccc(OC)c5nc34)cc1)CC2
39 |  | 0.516 | 21.8 | 145 |  |  | Cc1noc(C)c1-c1cc(-c2ccccc2Cl)nc(C2CC2)n1
40 | 4.59 (≈ 12.4 µM) |  | 14.7 | 399 |  |  | c1ccc(-c2ccc(Cn3ccnc3-c3cc4n(n3)CCCNC4)cc2)cc1
41 | 52.6 (≈ 121 µM) | 15.6 | 227 | 831 |  |  | CCn1ncc(CN2CCC(c3nc(N(C)C)ncc3-c3ccc(OC)cc3)CC2)c1C
42 | 32.1 (≈ 131 µM) |  | 73 | 876 |  |  | Cc1csc(CCNc2ncccc2C#N)n1
43 | 51 (≈ 170 µM) |  | 92.1 | 1570 |  |  | c1nc(Nc2ccc3c(c2)OCCCO3)c2sccc2n1
44 |  |  | 203 | 1540 |  |  | Cc1cccc(C)c1NCc1noc(C2CC2)n1
45 |  | 99.5 |  |  |  |  | COc1cc([C@H](CC(=O)O)c2ccc(C)c(CN3C[C@@H](C)Oc4ccccc4S3(=O)=O)c2)cc2nnn(C)c12
46 | 0.29 (≈ 1.06 µM) | 0.257 |  |  |  |  | c1ccc(OCc2nc3cc4ccccc4cc3[nH]2)cc1
47 |  | 1.3 | ≤ 4.74 | 104 |  |  | COc1ccccc1CNc1cn[nH]c(=O)c1Cl
48 |  |  | 82.2 | 216 |  |  | Nc1ccc(Nc2ncc3cnn(C4CCCCCC4)c3n2)cn1
49 | 23.3 (≈ 101 µM) | 0.595 | 33.6 | 79.2 |  |  | Cc1cc(N(C)C)nc(-n2cnc(C#N)n2)n1
50 | 59 (≈ 179 µM) | 19.1 | ≤ 4.74 | 65.9 |  |  | O=C1CCCN1CCc1nc(-c2ccc3[nH]c(=O)oc3c2)cs1
51 |  | 2.54 | ≤ 4.74 | ≤ 10.7 |  |  | COc1ncc(C(=O)NCc2cnn3cccnc23)cn1
52 | 53.2 (≈ 185 µM) | 0.422 | 26.3 | 160 |  |  | Cc1ncc(C(=O)Nc2ncnc3oc(C)c(C)c23)s1
53 | 22.6 (≈ 99.4 µM) | 0.587 | 111 | 169 |  |  | CCc1oc2c(-n3cnnc3)cccc2c1C
54 | 11.4 (≈ 36.2 µM) | 0.945 | 87 | 2280 |  |  | O=C(Cc1csc(-c2ccccn2)n1)NC1CCCCCC1
55 | 37.9 (≈ 112 µM) |  | 150 | 716 |  |  | CC(C)n1nccc1-c1ncccc1COc1cccc(O)c1C=O
56 | 29.1 (≈ 58.7 µM) | 2.59 | 75.9 | 519 |  |  | COc1cc(Br)c(Nc2nc(-c3c(C)nc4ncccn34)cs2)c(Br)c1

From the Biogen ADME set (Fang et al. 2023)
